The values that follow come from PubChem BioAssay (NCI).

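Dose response: 5 concentrations. Exposure: 48 h. Format: 96-well plates. Endpoint: linear interpolation; highest concentration if not reached. GI50 = concentration required for 50% inhibition of growth. Definition used: TGI = concentration required for complete inhibition of growth.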

One test relates to SN12C renal. Description: NCI tumour cell line growth inhibition, 48 h.
For `NC1=NCCC1(c1ccccc1)c1ccccn1` (stereo unspecified), the TGI was > 100 µM.
Same read-out and setting: the same measure for `CC(C)=CCC\C(C)=C/C=C/C(C)=C\C=C\C(C)=C/C=C/C=C(C)\C=C\C=C(C)/C=C/C=C(/C)CCC=C(C)C`: > 100 µM; for `COC(=O)c1ccccc1NC(=O)C(=O)Cc1nc2c3c(ccc2[nH]c1=O)C(=O)c1ccccc1C3=O`: > 100 µM.
As to `FC(F)(F)c1cccc(Nc2nc(-c3ccccc3)nc3ncccc23)c1`, the GI50 was 5 µM and the TGI is 64.3 µM.
`CCOC(=O)C(C)(C)Oc1ccc2c(-c3ccccc3)cc(=O)oc2c1`: the TGI is > 100 µM.
As to `CCCC1C(=O)CCc2c(OC)ccc(OC)c21` (stereo unspecified), the TGI was > 100 µM.
Same read-out and setting: the value for `NC(=O)NO.O.O.O.O.O.O.O.O.O.O.O.[Ge].[Ge].[Ge].[Ge].[Ge].[O]=[Ge].[O]=[Ge].[O]=[Ge].[O]=[Ge].[O]=[Ge][OH]` was > 100 µM; that for `O=C(Nc1nc2ccc([N+](=O)[O-])cc2s1)C(=O)C(C1OC(=O)c2ccccc21)[N+](=O)[O-]` (stereo unspecified) was > 100 µM; that for `COc1cc2cc(OC)c3cc4c(cc3c2c(OC)c1OC)OCO4` was > 100 µM.
In the case of `CCC[CH2][Sn]([CH2]CCC)([S]c1cccc2cccnc12)[S]c1cccc2cccnc12`, the GI50 was 0.24 µM and the TGI amounted to 0.822 µM.
On to `COC(=O)C1(C(C)C)CCc2c(OC)ccc(OC)c2C1=O` (stereo unspecified), for which the TGI is > 100 µM.
On to `OCc1cc2ccccc2c2c3c(ccc12)OCO3`, for which the GI50 was 29.1 µM and the TGI worked out at 141 µM.

In a further test the test system is EKVX NSCLC. Description: NCI tumour cell line growth inhibition, 48 h.
Take `Cc1cc(N(CCC#N)CCC#N)ccc1N=Nc1ccc(S(N)(=O)=O)cc1`: the TGI is > 100 µM.
The same measure, in the same setting: the value for `Cc1nc2c(ccc3ncccc32)[nH]1` was > 100 µM; that for `CN(C)C(=S)N=C(Nc1ccccc1)Nc1ccccc1` was > 100 µM; that for `Nc1ccccc1S(=O)(=O)N(CC(=O)O)c1ccccc1` was > 100 µM.
The same measure, in the same setting: the same measure for `COc1ccccc1N1C(=O)C2c3[nH]c4ccccc4c3C3CCC(C(C)(C)C)CC3C2C1=O` (stereo unspecified): > 100 µM.
As for `C=CCO[C@H]1CO[C@H]2[C@@H]1OC[C@@H]2Oc1ccc(Nc2ccnc(Nc3ccc(O[C@H]4CO[C@H]5[C@@H]4OC[C@@H]5OCC=C)c(Cl)c3)n2)cc1Cl`, the GI50 is 1690 nM and the TGI came to 3.15 µM.
Turning to `O=C(O)CCC(NC(=O)c1ccc(Nc2nc3ccccc3nc2-c2cccs2)cc1)C(=O)O` (stereo unspecified), the TGI is > 100 µM.
The same measure, in the same setting: the same measure for `COc1cc2ccnc([C@@H](OC(=O)c3ccccc3)c3ccc(OC)c(OC)c3OC)c2cc1OC`: > 100 µM; for `COC(=O)/C(C#N)=C1\NC(=O)c2ccccc21`: > 100 µM.
The same measure, in the same setting: the same measure for `O=C(O)CCNCCCNCCC(=O)O`: > 100 µM; for `NC1=NCCC1(c1ccccc1)c1ccccn1` (stereo unspecified): > 100 µM; for `CC(C)=CCC\C(C)=C/C=C/C(C)=C\C=C\C(C)=C/C=C/C=C(C)\C=C\C=C(C)/C=C/C=C(/C)CCC=C(C)C`: > 100 µM.
Still for that read-out and setting: the same measure for `COC(=O)c1ccccc1NC(=O)C(=O)Cc1nc2c3c(ccc2[nH]c1=O)C(=O)c1ccccc1C3=O`: 82.1 µM.
For `CCOC(=O)C(C)(C)Oc1ccc2c(-c3ccccc3)cc(=O)oc2c1`, the TGI was > 100 µM.
Same read-out and setting: the value for `CCCC1C(=O)CCc2c(OC)ccc(OC)c21` (stereo unspecified) was > 100 µM; that for `NC(=O)NO.O.O.O.O.O.O.O.O.O.O.O.[Ge].[Ge].[Ge].[Ge].[Ge].[O]=[Ge].[O]=[Ge].[O]=[Ge].[O]=[Ge].[O]=[Ge][OH]` was > 100 µM.
On the same count and under the same terms, the value for `O=C(Nc1nc2ccc([N+](=O)[O-])cc2s1)C(=O)C(C1OC(=O)c2ccccc21)[N+](=O)[O-]` (stereo unspecified) was > 100 µM; that for `COc1cc2cc(OC)c3cc4c(cc3c2c(OC)c1OC)OCO4` was > 92 µM.
As for `CCC[CH2][Sn]([CH2]CCC)([S]c1cccc2cccnc12)[S]c1cccc2cccnc12`, the GI50 was 336 nM and the TGI stood at 1.45 µM.
As to `COC(=O)C1(C(C)C)CCc2c(OC)ccc(OC)c2C1=O` (stereo unspecified), the TGI is > 100 µM.

The subject of another test is K-562 leukemia. Description: NCI tumour cell line growth inhibition, 48 h.
In the case of `CC1CCc2nc[nH]c(=O)c21` (stereo unspecified), the GI50 was > 100000 nM and the TGI is > 100 µM.
Consider `Cc1cc(N(CCC#N)CCC#N)ccc1N=Nc1ccc(S(N)(=O)=O)cc1`, for which the TGI is > 100 µM.
The same measure, in the same setting: the same measure for `Cc1nc2c(ccc3ncccc32)[nH]1`: > 100 µM; for `CN(C)C(=S)N=C(Nc1ccccc1)Nc1ccccc1`: > 100 µM.
Same read-out and setting: the value for `Nc1ccccc1S(=O)(=O)N(CC(=O)O)c1ccccc1` was > 100 µM; that for `COc1ccccc1N1C(=O)C2c3[nH]c4ccccc4c3C3CCC(C(C)(C)C)CC3C2C1=O` (stereo unspecified) was > 100 µM.
As to `C=CCO[C@H]1CO[C@H]2[C@@H]1OC[C@@H]2Oc1ccc(Nc2ccnc(Nc3ccc(O[C@H]4CO[C@H]5[C@@H]4OC[C@@H]5OCC=C)c(Cl)c3)n2)cc1Cl`, the GI50 is 378 nM and the TGI was determined as 1.9 µM.
Turning to `O=C(O)CCC(NC(=O)c1ccc(Nc2nc3ccccc3nc2-c2cccs2)cc1)C(=O)O` (stereo unspecified), the TGI was > 100 µM.
As for `COc1cc2ccnc([C@@H](OC(=O)c3ccccc3)c3ccc(OC)c(OC)c3OC)c2cc1OC`, the TGI is > 100 µM.
Same read-out and setting: the value for `COC(=O)/C(C#N)=C1\NC(=O)c2ccccc21` was > 100 µM.
On the same count and under the same terms, the value for `O=C(O)CCNCCCNCCC(=O)O` was > 100 µM.
With `Cc1nc2sccn2c1-c1csc(Nc2ccccc2Cl)n1`, the GI50 was 586 nM and the TGI turned out to be 17.1 µM.
As to `NC1=NCCC1(c1ccccc1)c1ccccn1` (stereo unspecified), the TGI was > 100 µM.
Regarding `CC(C)=CCC\C(C)=C/C=C/C(C)=C\C=C\C(C)=C/C=C/C=C(C)\C=C\C=C(C)/C=C/C=C(/C)CCC=C(C)C`, the TGI is > 100 µM.
On the same count and under the same terms, the value for `COC(=O)c1ccccc1NC(=O)C(=O)Cc1nc2c3c(ccc2[nH]c1=O)C(=O)c1ccccc1C3=O` was > 100 µM.
With `FC(F)(F)c1cccc(Nc2nc(-c3ccccc3)nc3ncccc23)c1`, the GI50 was 3170 nM and the TGI was found to be 17.9 µM.
Regarding `CCOC(=O)C(C)(C)Oc1ccc2c(-c3ccccc3)cc(=O)oc2c1`, the TGI is > 100 µM.
The same measure, in the same setting: the value for `CCCC1C(=O)CCc2c(OC)ccc(OC)c21` (stereo unspecified) was > 100 µM.
The same measure, in the same setting: the value for `NC(=O)NO.O.O.O.O.O.O.O.O.O.O.O.[Ge].[Ge].[Ge].[Ge].[Ge].[O]=[Ge].[O]=[Ge].[O]=[Ge].[O]=[Ge].[O]=[Ge][OH]` was > 100 µM; that for `O=C(Nc1nc2ccc([N+](=O)[O-])cc2s1)C(=O)C(C1OC(=O)c2ccccc21)[N+](=O)[O-]` (stereo unspecified) was > 100 µM; that for `COc1cc2cc(OC)c3cc4c(cc3c2c(OC)c1OC)OCO4` was 48 µM.
Take `CCC[CH2][Sn]([CH2]CCC)([S]c1cccc2cccnc12)[S]c1cccc2cccnc12`: the GI50 is 64.2 nM and the TGI was determined as 0.611 µM.
Consider `COC(=O)C1(C(C)C)CCc2c(OC)ccc(OC)c2C1=O` (stereo unspecified), for which the TGI was > 100 µM.
On to `OCc1cc2ccccc2c2c3c(ccc12)OCO3`, for which the GI50 is 40000 nM.
